Measurements reported in patent US9315484B2, “Mitochondrial aldehyde dehydrogenase-2 modulators and methods of use thereof” (The Board of Trustees of the Leland Stanford Junior …, priority 2007, dated 2016).
Numbering of substitutions follows the chain as printed.

Assays:
"wild-type" ALDH2 enzyme = target: T1, "wild-type" ALDH2 enzyme (Homo sapiens, UniProt P05091); assay: Screen and inhibition assay with wild-type ALDH2 enzyme; assay type: biochemical
T1 sequence (P05091 18-517): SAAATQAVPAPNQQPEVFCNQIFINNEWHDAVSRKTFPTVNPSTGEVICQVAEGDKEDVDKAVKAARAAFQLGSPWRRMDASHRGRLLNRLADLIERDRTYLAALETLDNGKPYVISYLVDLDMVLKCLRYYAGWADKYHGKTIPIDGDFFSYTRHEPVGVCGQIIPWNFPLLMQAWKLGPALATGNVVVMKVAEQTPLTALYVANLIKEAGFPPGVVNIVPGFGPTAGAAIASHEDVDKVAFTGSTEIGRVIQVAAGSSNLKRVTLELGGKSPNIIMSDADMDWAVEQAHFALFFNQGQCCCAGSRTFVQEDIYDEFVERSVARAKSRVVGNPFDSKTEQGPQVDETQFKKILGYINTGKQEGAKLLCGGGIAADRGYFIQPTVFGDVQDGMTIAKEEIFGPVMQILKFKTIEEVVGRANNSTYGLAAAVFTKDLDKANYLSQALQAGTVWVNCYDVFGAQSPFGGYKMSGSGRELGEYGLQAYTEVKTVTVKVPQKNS
Experimental: (§1) Compounds were screened using a method as depicted schematically in FIG. 2. Essentially, the reaction is carried out at 25° C. in 0.1 NaPPi buffer, pH 9.5, 2.4 mM NAD^+ and 10 mM acetaldehyde as the substrate. Enzymatic activity is measured by a reductive reaction of NAD^+ to NADH at 340 nm. Alternatively, the production of NADH can be coupled with another enzymatic reaction that consumes NADH and that provides for a detectable signal. An example of such an enzymatic reaction is a diaphorase-based reaction, which reduces resazurin to its […] fluorescent compound resorufin.
Compounds were screened, as described above, but using the “wild-type” ALDH2 enzyme. Of 63,000 compounds screened, six inhibitors were identified. Three of the compounds, referred to in FIGS. 8, 9, and 10 as #062923, #046072, and #032208, respectively, were assayed for their effect on ALDH2 enzymatic activity.

[1] = target: T2, E487K variant of human ALDH2 (Homo sapiens, UniProt P05091, E504K); assay: Enzymatic activity of histidine-tagged E487K ALDH2 variant (NAD+ to NADH, acetaldehyde substrate); assay type: biochemical; conditions: over control (without activator compound) activity; n=3
T2 construct: made in house; host or cells: E. coli
T2 sequence (P05091 18-517 E504K): T1 sequence (P05091 18-517) with E487K
Experimental: as §1
For example, a 120 μl reaction mixture for ALDH2 enzymatic activity comprises the following components:
43 μl 150 mM sodium pyrophosphate (NaPPi) buffer, pH 9.0;
15 μl 80 mM acetaldehyde;
1 μl of resazurin (0.2 mg/ml in H2O);
1 μl of diaphorase (1 unit, e.g., from Clostridium kluyveri);
2 μl of variant ALDH2 (e.g., 2 μl of variant ALDH2 at (0.5-2 μg/μl); and
28 μl of a solution comprising an agent to be tested, which agent has been resuspended in an appropriate solvent (e.g., an aqueous solution, DMSO, and the like).
Fluorescent detection of the above-described reaction as described in Table 1:
A fusion protein that includes the E487K variant of human ALDH2 (see amino acid sequence depicted in FIG. 1B) and a poly-histidine tag was synthesized and used in screens for ALDH2 agonists. An expression construct that encodes the […] variant fused in-frame to a poly-histidine (His) tag was introduced into E. coli, and expression was induced by the addition of isopropyl-1-thio-3-D-galactoside (IPTG); and His-tagged E487K ALDH2 variant was produced. The His-tagged E487K ALDH2 variant was purified from E. coli extract using a metal ion affinity column to bind the His-tagged E487K ALDH2 variant. His-tagged E487K ALDH2 variant was eluted from the column and used in screening assays to identify ALDH2 agonists.

ALDH2*2 mutant enzyme = target: T3, ALDH2*2 mutant enzyme (Homo sapiens, UniProt P05091, E504K); assay: ALDH2 enzymatic assay, ALDH2*2 recombinant enzyme; assay type: biochemical; conditions: range of 10-200 μM
T3 sequence (P05091 18-517 E504K): T1 sequence (P05091 18-517) with E487K
Experimental: (§2) BDDB derivative compounds, XO43 and XO44 as depicted in FIG. 12, were synthesized and tested in ALDH2 enzymatic assays. […] Enzymatic activity was measured by a reductive reaction of NAD^+ to NADH at 340 nm, as described in US 2005/0171043; and WO 2005/057213. […] (FIG. 12: n=3 for both right and left panels.)

ALDH2*1 wild type enzyme = target: T4, ALDH2*1 wild type enzyme (Homo sapiens, UniProt P05091); assay: ALDH2 enzymatic assay, ALDH2*1 recombinant enzyme; assay type: biochemical; conditions: for increase in activity of ALDH2*1 wild type enzyme: at the higher concentration (range 10-200 μM), n=3; for ALDH2 activation, dose dependence: range of 10-200 μM
T4 sequence (P05091 18-517): T1 sequence (P05091 18-517)
Experimental: as §2

Male Wistar rats = assay: In vivo LAD coronary artery ligation ischemia/reperfusion model; design: species or system rat; conditions: 8.5 mg/kg into the left ventricle five minutes before LAD ligation, p<0.01
Experimental: Male Wistar rats (250-300 g) were anesthetized by 3% isoflurane. The surgical procedures used for left anterior descending coronary artery (LAD) ligation are based on published protocols Animals were intubated, and ventilated with a Harvard rodent ventilator at a rate of 80 breaths per minute (5-15 mm Hg). Maintenance anesthesia was provided via 1% inhalational isoflurane, and body temperature was maintained at 37° C. using a rectal probe linked to a thermocoupled thermometer and an appropriate heating blanket. The heart was exposed by median sternotomy. Following a 20-minute period of stabilization, a ligature was placed around the LAD coronary artery, close to its origin from the aortic root. The ends of the ligature were passed through polyethylene tubing forming a small noose in which a syringe plunger was rested upon the myocardial surface. Coronary occlusion was achieved by pressing the tubing against the plunger while pulling on the ligature followed by clamping the tubing with a hemostat. Occlusion was determined by observation of immediate pallor of the left ventricular free wall. Reflow was achieved by release of the ligature. […]
At the end of reperfusion, hearts were excised and flushed with 0.9% saline. […] Serum was separated by centrifugation at 5000 g for 5 minutes on a tabletop centrifuge and creatine phosphate kinase (CPK) values were determined.

rat hearts = assay: Ex vivo Langendorff model of myocardial infarction (no-flow ischemia and reperfusion); conditions: ex vivo rat heart
Experimental: Ex vivo Langendorff preparations of rat hearts were used as a model to assess the damage incurred by no-flow ischemia and reperfusion injury. This is an experimental model that mimics the clinical situation of myocardial infarction in patients. Rat hearts were excised and cannulated on a Langendorff apparatus via the aorta. Retrograde perfusion was carried out using the standard oxygenated Kreb-Hensleit buffer maintained at 37° C. All hearts were stabilized by an initial 5- to 10-minute perfusion period followed by delivery of different cardioprotective agents or AldDH2 inhibitors for 10-30 minutes, depending on the reagent. Reagents used in some of the representative experiments including ethanol (50 mM), EPKC isozyme-selective activator and inhibitor peptides (1 μM), cyanamide (5 mM) and nitroglycerin (2 μM). […]
The degree of ischemia/reperfusion damage was measured by two independent commonly accepted parameters. […] In another assay, creatine phosphate kinase activity was measured from reperfusate of each heart collected during reperfusion. […] Homogenates from each heart was also obtained from a separate section of the identical sample and analyzed for aldehyde dehydrogenase enzymatic activity. Enzymatic activity was determined by a standard spectrophotometric method described above using acetaldehyde as the substrate and NAD^+ as a cofactor.

Structure (SMILES) | IC50 ("wild-type" ALDH2 enzyme) | increase of enzymatic activity of the E487K ALDH2 variant over control [1] | ALDH2 activation, dose dependence (ALDH2*2 mutant enzyme) | increase in activity of ALDH2*1 wild type enzyme (ALDH2*1 wild type enzyme) | ALDH2 activation, dose dependence (ALDH2*1 wild type enzyme) | other results
O=C(Nc1nc2c(Cl)c(Cl)ccc2s1)c1cccnc1 [#032208] | 1620 nM | – | – | – | – | –
CCc1ccc(C(=O)CCN(C)C)cc1 [#046072] | 1140 nM | – | – | – | – | –
COc1ccc(C(=O)CCN(C)C)cc1F [#062923] | 630 nM | – | – | – | – | –
O=C(NCc1ccc2c(c1)OCO2)c1c(Cl)cccc1Cl [Compound 1, N-(1,3-benzodioxol-5-ylmethyl)-2,6-dichlorobenzamide] | – | approximately 900% | dosage dependent effect | about 180% | dosage dependent effect | decrease of CPK release (Male Wistar rats; rat blood): about 57%; decrease of the extent of myocardial infarction (Male Wistar rats; rat): about 60%; infarct size (rat hearts; ischemia-reperfusion, control 57.7±5.4%, p<0.05, n=7): 41.6±4.1%; CPK release (rat hearts; reperfusate, control 5530±329, P<0.05, n=8): 4396 Units/Liter
O=C(NCc1ccc2c(c1)OCO2)c1c(F)cccc1F [Compound 2, N-(1,3-benzodioxol-5-ylmethyl)-2,6-difluorobenzamide] | – | approximately 300% | – | – | – | –
O=C(NCc1ccc2c(c1)OCO2)c1ccccc1Br [Compound 3, N-(1,3-benzodioxol-5-ylmethyl)-2-bromobenzamide] | – | ~600% | – | – | – | –
O=C(NCc1ccc2c(c1)OCO2)c1ccccc1I [Compound 4, N-(1,3-benzodioxol-5-ylmethyl)-2-iodobenzamide] | – | ~700% | – | – | – | –
O=C(NCc1ccc2c(c1)OCO2)c1c(Cl)cncc1Cl [XO43] | – | – | dosage dependent effect | about 180% | dosage dependent effect | –
Cc1cccc(C)c1C(=O)NCc1ccc2c(c1)OCO2 [XO44] | – | – | dosage dependent effect | about 180% | dosage dependent effect | –
